One data set concerns the target T1, CDK5 (Homo sapiens, UniProt Q00535).
T1 construct: purchased Life Technologies (Invitrogen SelectScreen); Dyrk1A, Dyrk2 and CK2α in-house or gifts
Briefly: Selectivity panel CDK5. Format: biochemical. As to conditions: 5 µM inhibitor.

The target in a further data set is T2, Dyrk1B (Homo sapiens, UniProt Q9Y463).
T2 construct: purchased Life Technologies PV4649 (LOT # 877059G)
As to the kind of experiment: Dyrk1B kinase assay (32P-ATP, Woodtide). Format: biochemical. To be noted: for IC50: 100 µM ATP; for inhibition at 5 µM: read-out: percentage of inhibition Dyrk1B.

The target of a further data set is Clk1 (Homo sapiens, UniProt P49759). As to the kind of experiment: Clk1 kinase assay (RS repeat peptide). The class given is biochemical. To be noted: for IC50: 100 µM ATP; for inhibition at 5 µM: read-out: % inhibition Clk1.
A further data set concerns the target T3, MST1 (STK4) (Homo sapiens, UniProt Q13043).
T3 construct: purchased Life Technologies (Invitrogen SelectScreen); Dyrk1A, Dyrk2 and CK2α in-house or gifts
T3 sequence (Q13043 1-487): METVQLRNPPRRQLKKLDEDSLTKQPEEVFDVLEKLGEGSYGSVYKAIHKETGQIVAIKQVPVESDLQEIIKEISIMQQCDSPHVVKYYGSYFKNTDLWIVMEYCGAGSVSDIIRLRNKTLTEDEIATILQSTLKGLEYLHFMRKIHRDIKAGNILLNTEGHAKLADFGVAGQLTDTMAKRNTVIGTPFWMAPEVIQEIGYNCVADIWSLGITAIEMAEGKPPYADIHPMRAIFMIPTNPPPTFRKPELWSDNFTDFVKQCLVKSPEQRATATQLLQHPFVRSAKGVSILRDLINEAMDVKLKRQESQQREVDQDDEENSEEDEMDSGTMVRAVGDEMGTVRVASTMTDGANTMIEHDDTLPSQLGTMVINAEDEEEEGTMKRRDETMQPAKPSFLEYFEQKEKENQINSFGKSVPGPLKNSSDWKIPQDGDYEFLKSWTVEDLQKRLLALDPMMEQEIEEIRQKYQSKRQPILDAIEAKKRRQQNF
Briefly: Selectivity panel MST1. Format: biochemical. As to conditions: 5 µM inhibitor.

In the next data set the target is T4, PKCβ (Homo sapiens, UniProt P05771).
T4 construct: purchased Life Technologies (Invitrogen SelectScreen); Dyrk1A, Dyrk2 and CK2α in-house or gifts
As to the kind of experiment: Selectivity panel PKCβ. Format: biochemical. To be noted: 5 µM inhibitor.

The target in the next data set is T5, CaMK1 (Homo sapiens, UniProt Q14012).
T5 construct: purchased Life Technologies (Invitrogen SelectScreen); Dyrk1A, Dyrk2 and CK2α in-house or gifts
Briefly: Selectivity panel CaMK1. Format: biochemical. As to conditions: 5 µM inhibitor.

Another data set has as its target T6, MAPK12 (p38 gamma, ERK3) (Homo sapiens, UniProt P53778).
T6 construct: purchased Life Technologies (Invitrogen SelectScreen); Dyrk1A, Dyrk2 and CK2α in-house or gifts
Briefly: Selectivity panel MAPK12. Format: biochemical. As to conditions: 5 µM inhibitor.

The target in another data set is T7, PASK (Homo sapiens, UniProt Q96RG2).
T7 construct: purchased Life Technologies (Invitrogen SelectScreen); Dyrk1A, Dyrk2 and CK2α in-house or gifts
As to the kind of experiment: Selectivity panel PASK (CAMK). Format: biochemical. As to conditions: 5 µM inhibitor; listed under CAMK.

The next data set has as its target T8, MAP3K5 (ASK1) (Homo sapiens, UniProt Q99683).
T8 construct: purchased Life Technologies (Invitrogen SelectScreen); Dyrk1A, Dyrk2 and CK2α in-house or gifts
As to the kind of experiment: Selectivity panel MAP3K5. The class given is biochemical. As to conditions: 5 µM inhibitor.

For a further data set, the target named is T9, BRSK1 (SAD1) (Homo sapiens, UniProt Q8TDC3).
T9 construct: purchased Life Technologies (Invitrogen SelectScreen); Dyrk1A, Dyrk2 and CK2α in-house or gifts
As to the kind of experiment: Selectivity panel BRSK1. To be noted: 5 µM inhibitor. The class given is biochemical.

The target in the next data set is T10, MAPK9 (JNK2) (Homo sapiens, UniProt P45984).
T10 construct: purchased Life Technologies (Invitrogen SelectScreen); Dyrk1A, Dyrk2 and CK2α in-house or gifts
As to the kind of experiment: Selectivity panel MAPK9. Format: biochemical. To be noted: 5 µM inhibitor.

The next data set concerns the target T11, TGFBR1 (ALK5) (Homo sapiens, UniProt P36897).
T11 construct: purchased Life Technologies (Invitrogen SelectScreen); Dyrk1A, Dyrk2 and CK2α in-house or gifts
Briefly: Selectivity panel TGFBR1. The class given is biochemical. To be noted: 5 µM inhibitor.

The target in another data set is T12, IRAK4 (Homo sapiens, UniProt Q9NWZ3).
T12 construct: purchased Life Technologies (Invitrogen SelectScreen); Dyrk1A, Dyrk2 and CK2α in-house or gifts
Briefly: Selectivity panel IRAK4. The class given is biochemical. As to conditions: 5 µM inhibitor.

In another data set the target is T13, CDK1/cyclin B (Homo sapiens, UniProt P06493).
T13 construct: purchased Life Technologies (Invitrogen SelectScreen); Dyrk1A, Dyrk2 and CK2α in-house or gifts
Briefly: Selectivity panel CDK1/cyclin B. Format: biochemical. To be noted: 5 µM inhibitor.

A further data set has as its target T14, AXL (Homo sapiens, UniProt P30530).
T14 construct: purchased Life Technologies (Invitrogen SelectScreen); Dyrk1A, Dyrk2 and CK2α in-house or gifts
As to the kind of experiment: Selectivity panel AXL. Format: biochemical. As to conditions: 5 µM inhibitor.

The target in a further data set is T15, PRKD1 (PKC mu, PKD1) (Homo sapiens, UniProt Q15139).
T15 construct: purchased Life Technologies (Invitrogen SelectScreen); Dyrk1A, Dyrk2 and CK2α in-house or gifts
Briefly: Selectivity panel PRKD1. The class given is biochemical. As to conditions: 5 µM inhibitor.

In the next data set the target is T16, MAP3K14 (NIK) (Homo sapiens, UniProt Q99558).
T16 construct: purchased Life Technologies (Invitrogen SelectScreen); Dyrk1A, Dyrk2 and CK2α in-house or gifts
Briefly: Selectivity panel MAP3K14. Format: biochemical. As to conditions: 5 µM inhibitor.

In another data set the target is T17, MAPK8 (JNK1) (Homo sapiens, UniProt P45983).
T17 construct: purchased Life Technologies (Invitrogen SelectScreen); Dyrk1A, Dyrk2 and CK2α in-house or gifts
As to the kind of experiment: Selectivity panel MAPK8. To be noted: 5 µM inhibitor. Format: biochemical.

Another data set deals with T18, PTK6 (Brk) (Homo sapiens, UniProt Q13882).
T18 construct: purchased Life Technologies (Invitrogen SelectScreen); Dyrk1A, Dyrk2 and CK2α in-house or gifts
Briefly: Selectivity panel PTK6. Format: biochemical. To be noted: 5 µM inhibitor.

Data set [1] in a line: Metabolic Stability Assay. As to conditions: male, Sprague-Dawley, rat, liver microsomes. Background: Liver microsomes are vesicles of endoplasmic reticulum, rich in cytochrome P450 enzymes.
For the next data set, the target named is T19, NEK7 (Homo sapiens, UniProt Q8TDX7).
T19 construct: purchased Life Technologies (Invitrogen SelectScreen); Dyrk1A, Dyrk2 and CK2α in-house or gifts
As to the kind of experiment: Selectivity panel NEK7. The class given is biochemical. As to conditions: 5 µM inhibitor.

The target in another data set is T20, DAPK3 (ZIPK) (Homo sapiens, UniProt O43293).
T20 construct: purchased Life Technologies (Invitrogen SelectScreen); Dyrk1A, Dyrk2 and CK2α in-house or gifts
As to the kind of experiment: Selectivity panel DAPK3. To be noted: 5 µM inhibitor. The class given is biochemical.

Another data set deals with T21, AURKA (Aurora A) (Homo sapiens, UniProt O14965).
T21 construct: purchased Life Technologies (Invitrogen SelectScreen); Dyrk1A, Dyrk2 and CK2α in-house or gifts
Briefly: Selectivity panel AURKA. To be noted: 5 µM inhibitor. Format: biochemical.

The target of the next data set is T22, MAP4K2 (GCK) (Homo sapiens, UniProt Q12851).
T22 construct: purchased Life Technologies (Invitrogen SelectScreen); Dyrk1A, Dyrk2 and CK2α in-house or gifts
Briefly: Selectivity panel MAP4K2. Format: biochemical. As to conditions: 5 µM inhibitor.

In a further data set the target is T23, DYRK3 (Homo sapiens, UniProt O43781).
T23 construct: purchased Life Technologies (Invitrogen SelectScreen); Dyrk1A, Dyrk2 and CK2α in-house or gifts
Briefly: Selectivity panel DYRK3. As to conditions: 5 µM inhibitor. Format: biochemical.

For another data set, the target named is T24, CHEK1 (CHK1) (Homo sapiens, UniProt O14757).
T24 construct: purchased Life Technologies (Invitrogen SelectScreen); Dyrk1A, Dyrk2 and CK2α in-house or gifts
Briefly: Selectivity panel CHEK1. The class given is biochemical. To be noted: 5 µM inhibitor.

In another data set the target is T25, PAK4 (Homo sapiens, UniProt O96013).
T25 construct: purchased Life Technologies (Invitrogen SelectScreen); Dyrk1A, Dyrk2 and CK2α in-house or gifts
As to the kind of experiment: Selectivity panel PAK4. The class given is biochemical. As to conditions: 5 µM inhibitor.

In the next data set the target is T26, ZAK (Homo sapiens, UniProt Q9NYL2).
T26 construct: purchased Life Technologies (Invitrogen SelectScreen); Dyrk1A, Dyrk2 and CK2α in-house or gifts
As to the kind of experiment: Selectivity panel ZAK. The class given is biochemical. As to conditions: 5 µM inhibitor.

The target of data set [2] is T27, (Homo sapiens, UniProt Q9UEW8).
T27 construct: purchased Life Technologies (Invitrogen SelectScreen); Dyrk1A, Dyrk2 and CK2α in-house or gifts
As to the kind of experiment: Selectivity panel PASK (STLK3). As to conditions: 5 µM inhibitor; listed under STE. Format: biochemical.

The target in another data set is T28, PRKCE (PKC epsilon) (Homo sapiens, UniProt Q02156).
T28 construct: purchased Life Technologies (Invitrogen SelectScreen); Dyrk1A, Dyrk2 and CK2α in-house or gifts
Briefly: Selectivity panel PRKCE. Format: biochemical. To be noted: 5 µM inhibitor.

Another data set has as its target T29, HIPK4 (Homo sapiens, UniProt Q8NE63).
T29 construct: purchased Life Technologies (Invitrogen SelectScreen); Dyrk1A, Dyrk2 and CK2α in-house or gifts
Briefly: Selectivity panel HIPK4. Format: biochemical. To be noted: 5 µM inhibitor.

A further data set has as its target T30, MAPK10 (JNK3) (Homo sapiens, UniProt P53779).
T30 construct: purchased Life Technologies (Invitrogen SelectScreen); Dyrk1A, Dyrk2 and CK2α in-house or gifts
Briefly: Selectivity panel MAPK10. Format: biochemical. As to conditions: 5 µM inhibitor.

For a further data set, the target named is T31, EPHB3 (Homo sapiens, UniProt P54753).
T31 construct: purchased Life Technologies (Invitrogen SelectScreen); Dyrk1A, Dyrk2 and CK2α in-house or gifts
As to the kind of experiment: Selectivity panel EPHB3. The class given is biochemical. As to conditions: 5 µM inhibitor.

In another data set the target is T32, MAP2K1 (MEK1) (Homo sapiens, UniProt Q02750).
T32 construct: purchased Life Technologies (Invitrogen SelectScreen); Dyrk1A, Dyrk2 and CK2α in-house or gifts
Briefly: Selectivity panel MAP2K1. To be noted: 5 µM inhibitor. The class given is biochemical.

The target of another data set is T33, TNK2 (ACK) (Homo sapiens, UniProt Q07912).
T33 construct: purchased Life Technologies (Invitrogen SelectScreen); Dyrk1A, Dyrk2 and CK2α in-house or gifts
Briefly: Selectivity panel TNK2. The class given is biochemical. To be noted: 5 µM inhibitor.

Where two headings read alike, the source gives them in different places.

Broadly, the inhibition is the change of the read-out against control, counted positive when it falls. As usually defined, the IC50 is the concentration needed to halve the response being measured. A lower IC50 goes with greater potency. Usually half-life stands for the time in which the quantity being followed falls by half.

T1 sequence (Q00535 whole entry): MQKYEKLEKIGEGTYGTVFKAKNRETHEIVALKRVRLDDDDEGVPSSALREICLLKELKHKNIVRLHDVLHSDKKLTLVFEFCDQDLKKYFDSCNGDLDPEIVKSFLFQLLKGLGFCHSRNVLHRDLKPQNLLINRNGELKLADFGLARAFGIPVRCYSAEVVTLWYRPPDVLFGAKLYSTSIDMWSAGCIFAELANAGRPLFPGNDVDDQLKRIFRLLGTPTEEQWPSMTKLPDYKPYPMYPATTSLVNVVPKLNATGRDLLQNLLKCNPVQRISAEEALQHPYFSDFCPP
T1 sequence (Q15078 whole entry partner): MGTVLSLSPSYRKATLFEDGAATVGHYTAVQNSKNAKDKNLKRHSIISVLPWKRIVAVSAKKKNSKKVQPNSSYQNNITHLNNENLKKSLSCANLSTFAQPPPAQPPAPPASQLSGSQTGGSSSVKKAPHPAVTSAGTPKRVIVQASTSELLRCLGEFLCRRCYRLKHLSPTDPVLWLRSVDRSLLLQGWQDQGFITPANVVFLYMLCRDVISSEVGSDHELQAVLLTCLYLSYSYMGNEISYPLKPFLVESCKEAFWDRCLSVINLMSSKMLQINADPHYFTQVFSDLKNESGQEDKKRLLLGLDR
T4 sequence (P05771 whole entry): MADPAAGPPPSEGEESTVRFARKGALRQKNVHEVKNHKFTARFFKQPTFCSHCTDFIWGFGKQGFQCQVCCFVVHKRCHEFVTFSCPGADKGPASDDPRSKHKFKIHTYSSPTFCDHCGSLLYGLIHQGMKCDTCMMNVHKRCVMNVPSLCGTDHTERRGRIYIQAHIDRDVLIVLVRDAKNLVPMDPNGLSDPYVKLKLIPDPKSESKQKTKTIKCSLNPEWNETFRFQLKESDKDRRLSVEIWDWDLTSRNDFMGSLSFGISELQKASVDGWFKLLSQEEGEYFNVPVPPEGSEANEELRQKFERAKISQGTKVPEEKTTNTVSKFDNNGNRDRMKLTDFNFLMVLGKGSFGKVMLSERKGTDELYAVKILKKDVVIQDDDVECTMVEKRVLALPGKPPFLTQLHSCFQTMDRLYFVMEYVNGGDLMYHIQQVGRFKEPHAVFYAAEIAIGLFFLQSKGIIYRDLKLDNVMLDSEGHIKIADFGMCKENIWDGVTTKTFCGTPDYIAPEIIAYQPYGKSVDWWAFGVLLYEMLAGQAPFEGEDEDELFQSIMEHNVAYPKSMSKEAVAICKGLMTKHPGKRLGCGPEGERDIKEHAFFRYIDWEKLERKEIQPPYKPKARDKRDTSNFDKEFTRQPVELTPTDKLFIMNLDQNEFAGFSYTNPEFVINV
T2 sequence (Q9Y463 whole entry): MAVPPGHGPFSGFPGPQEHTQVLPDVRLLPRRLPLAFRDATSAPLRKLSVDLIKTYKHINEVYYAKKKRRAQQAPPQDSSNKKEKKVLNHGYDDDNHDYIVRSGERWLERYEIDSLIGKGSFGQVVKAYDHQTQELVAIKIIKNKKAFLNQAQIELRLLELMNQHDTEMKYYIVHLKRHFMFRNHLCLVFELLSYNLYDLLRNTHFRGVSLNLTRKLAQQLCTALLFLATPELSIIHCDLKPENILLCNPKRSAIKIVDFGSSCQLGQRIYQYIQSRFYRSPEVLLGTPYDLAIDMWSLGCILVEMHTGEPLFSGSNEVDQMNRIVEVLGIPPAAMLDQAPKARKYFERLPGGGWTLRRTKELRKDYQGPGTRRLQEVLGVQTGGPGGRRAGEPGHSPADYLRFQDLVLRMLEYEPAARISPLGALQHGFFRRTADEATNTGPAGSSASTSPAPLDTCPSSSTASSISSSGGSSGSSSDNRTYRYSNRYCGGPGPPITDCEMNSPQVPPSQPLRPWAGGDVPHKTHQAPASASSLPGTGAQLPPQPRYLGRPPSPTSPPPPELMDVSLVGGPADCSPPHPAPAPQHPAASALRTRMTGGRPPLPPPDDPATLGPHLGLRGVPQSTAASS
Clk1, sequence (P49759 whole entry): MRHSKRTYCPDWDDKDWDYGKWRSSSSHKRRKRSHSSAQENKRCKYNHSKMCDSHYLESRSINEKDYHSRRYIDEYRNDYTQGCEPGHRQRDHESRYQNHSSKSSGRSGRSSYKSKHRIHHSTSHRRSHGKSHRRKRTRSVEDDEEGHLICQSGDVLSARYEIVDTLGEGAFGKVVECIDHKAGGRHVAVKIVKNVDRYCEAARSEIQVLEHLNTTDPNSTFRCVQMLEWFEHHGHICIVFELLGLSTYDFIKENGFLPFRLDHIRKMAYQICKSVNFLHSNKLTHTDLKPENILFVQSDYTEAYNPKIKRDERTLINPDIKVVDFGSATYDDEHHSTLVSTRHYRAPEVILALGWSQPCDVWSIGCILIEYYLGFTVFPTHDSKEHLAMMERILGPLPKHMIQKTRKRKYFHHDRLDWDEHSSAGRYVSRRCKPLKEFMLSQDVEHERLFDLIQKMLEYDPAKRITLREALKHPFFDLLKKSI
T5 sequence (Q14012 whole entry): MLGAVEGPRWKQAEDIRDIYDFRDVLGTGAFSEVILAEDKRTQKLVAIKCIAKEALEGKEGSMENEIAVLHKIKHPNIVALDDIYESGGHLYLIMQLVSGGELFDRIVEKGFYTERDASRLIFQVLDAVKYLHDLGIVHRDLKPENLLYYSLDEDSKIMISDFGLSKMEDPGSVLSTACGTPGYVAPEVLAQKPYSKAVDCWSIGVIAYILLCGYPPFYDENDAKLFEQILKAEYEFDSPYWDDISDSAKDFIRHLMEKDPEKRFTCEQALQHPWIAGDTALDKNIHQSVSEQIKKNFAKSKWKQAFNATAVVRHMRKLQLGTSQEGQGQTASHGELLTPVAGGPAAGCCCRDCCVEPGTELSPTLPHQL
T7 sequence (Q96RG2 whole entry): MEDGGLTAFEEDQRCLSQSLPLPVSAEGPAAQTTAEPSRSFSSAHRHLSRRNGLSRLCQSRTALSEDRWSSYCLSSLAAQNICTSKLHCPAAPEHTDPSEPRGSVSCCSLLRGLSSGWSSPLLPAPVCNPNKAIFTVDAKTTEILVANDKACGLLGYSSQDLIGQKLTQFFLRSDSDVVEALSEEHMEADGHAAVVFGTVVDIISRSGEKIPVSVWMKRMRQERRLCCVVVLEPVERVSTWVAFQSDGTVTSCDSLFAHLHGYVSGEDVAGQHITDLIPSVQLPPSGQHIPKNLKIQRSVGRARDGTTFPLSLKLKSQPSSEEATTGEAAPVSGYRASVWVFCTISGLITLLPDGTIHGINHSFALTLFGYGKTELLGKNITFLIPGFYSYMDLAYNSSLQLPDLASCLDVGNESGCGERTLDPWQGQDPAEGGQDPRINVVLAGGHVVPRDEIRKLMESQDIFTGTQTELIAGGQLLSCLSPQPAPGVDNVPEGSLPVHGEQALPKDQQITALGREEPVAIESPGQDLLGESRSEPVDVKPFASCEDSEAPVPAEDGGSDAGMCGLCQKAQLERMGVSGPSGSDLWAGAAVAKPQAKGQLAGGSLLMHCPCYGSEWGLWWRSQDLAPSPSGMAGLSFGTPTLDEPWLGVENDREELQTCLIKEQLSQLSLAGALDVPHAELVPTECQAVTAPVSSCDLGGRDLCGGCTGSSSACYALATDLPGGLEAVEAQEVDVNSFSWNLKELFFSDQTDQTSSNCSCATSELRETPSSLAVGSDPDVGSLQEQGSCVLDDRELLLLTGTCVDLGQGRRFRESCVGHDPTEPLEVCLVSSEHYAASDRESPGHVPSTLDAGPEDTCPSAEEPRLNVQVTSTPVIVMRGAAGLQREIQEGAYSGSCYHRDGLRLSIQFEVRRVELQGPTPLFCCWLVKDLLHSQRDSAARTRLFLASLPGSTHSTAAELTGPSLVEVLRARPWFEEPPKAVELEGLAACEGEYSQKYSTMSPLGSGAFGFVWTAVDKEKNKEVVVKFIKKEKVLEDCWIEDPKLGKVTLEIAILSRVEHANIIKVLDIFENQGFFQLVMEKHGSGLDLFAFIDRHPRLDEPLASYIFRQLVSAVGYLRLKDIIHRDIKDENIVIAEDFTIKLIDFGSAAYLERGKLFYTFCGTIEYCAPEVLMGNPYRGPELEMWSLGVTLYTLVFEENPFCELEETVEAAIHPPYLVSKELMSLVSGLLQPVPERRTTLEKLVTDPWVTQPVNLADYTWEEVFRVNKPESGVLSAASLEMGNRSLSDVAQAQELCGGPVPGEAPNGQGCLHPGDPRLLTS
T30 sequence (P53779 whole entry): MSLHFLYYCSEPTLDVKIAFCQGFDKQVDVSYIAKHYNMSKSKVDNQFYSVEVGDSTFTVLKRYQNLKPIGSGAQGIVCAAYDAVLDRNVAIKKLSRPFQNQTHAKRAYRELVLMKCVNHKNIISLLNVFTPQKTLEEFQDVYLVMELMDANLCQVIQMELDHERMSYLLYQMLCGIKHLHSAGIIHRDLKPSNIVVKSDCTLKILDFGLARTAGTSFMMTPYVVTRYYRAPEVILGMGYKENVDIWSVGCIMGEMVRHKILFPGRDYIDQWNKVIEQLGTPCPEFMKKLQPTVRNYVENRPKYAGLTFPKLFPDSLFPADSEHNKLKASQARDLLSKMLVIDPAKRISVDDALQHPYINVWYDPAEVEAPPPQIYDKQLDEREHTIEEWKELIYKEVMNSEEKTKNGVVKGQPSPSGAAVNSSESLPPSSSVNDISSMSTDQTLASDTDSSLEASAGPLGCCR
T10 sequence (P45984 whole entry): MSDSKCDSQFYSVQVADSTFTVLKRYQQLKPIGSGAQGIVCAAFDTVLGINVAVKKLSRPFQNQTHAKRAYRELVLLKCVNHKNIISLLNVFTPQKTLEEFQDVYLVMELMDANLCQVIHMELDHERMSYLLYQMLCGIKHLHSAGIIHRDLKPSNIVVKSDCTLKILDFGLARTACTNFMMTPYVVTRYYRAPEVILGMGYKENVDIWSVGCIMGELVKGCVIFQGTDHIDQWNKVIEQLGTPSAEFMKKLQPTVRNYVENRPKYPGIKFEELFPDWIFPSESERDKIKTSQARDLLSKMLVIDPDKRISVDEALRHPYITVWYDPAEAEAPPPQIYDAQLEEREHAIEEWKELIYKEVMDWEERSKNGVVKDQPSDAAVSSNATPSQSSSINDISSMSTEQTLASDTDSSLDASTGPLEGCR

As to `c1cncc(-c2csc(-c3cnco3)c2)c1` [Compound 33, 3-[5-(1,3-oxazol-5-yl)thiophen-3-yl]pyridine], the inhibition at 5 µM was 23% against CDK5; 83% at Dyrk1B; 88% on Clk1 (at 5 µM); 0% against MST1 (STK4); -18% against PKCβ; 12% on CaMK1. Besides, the figures for the IC50 at Dyrk1B and against Clk1 were 1000 nM and 420 nM, respectively.
As for `c1cncc(-c2cc(-c3cncs3)cs2)c1` [Compound 29, 3-[4-(1,3-thiazol-5-yl)thiophen-2-yl]pyridine], the inhibition at 5 µM was -2% on MAPK12 (p38 gamma, ERK3); 23% at PASK; 4% at MAP3K5 (ASK1); 11% against BRSK1 (SAD1); -6% against MAPK9 (JNK2); 24% against TGFBR1 (ALK5). The inhibition at 5 µM at IRAK4 is -7%; on CDK1/cyclin B it was 29%; against AXL, -2%; against CDK5, 39%; against PRKD1 (PKC mu, PKD1), -1%; against MAP3K14 (NIK), 2%. Further, the inhibition at 5 µM at MAPK8 (JNK1) is -1%; on PTK6 (Brk) it was 30%; against NEK7, 0%; against DAPK3 (ZIPK), -1%; against AURKA (Aurora A), 5%; against MAP4K2 (GCK) it was 32%. The inhibition at 5 µM on DYRK3 is 66%; against CHEK1 (CHK1) it was 3%; against PAK4, 3%; on Clk1, 96%; on MST1 (STK4) it was 0%; against PKCβ it was -7%. For the same compound, the inhibition at 5 µM on ZAK was 11%; in [2], 23%; against PRKCE (PKC epsilon), -18%; against HIPK4 it was 7%; against MAPK10 (JNK3) it was 4%; at CaMK1, 8%. Further, the inhibition at 5 µM at EPHB3 came out at 0%; on MAP2K1 (MEK1), 1%; against TNK2 (ACK) it was 8%. Also, the CLhep predicted at 0.5 µM in [1] was 49 mL/min/kg. Also, in data set [1], the half-life at 0.5 µM worked out at 27 min.
Take `c1cncc(-c2csc(-c3cncnc3)c2)c1` [Compound 41, 5-[4-(pyridin-3-yl)thiophen-2-yl]pyrimidine]: the inhibition at 5 µM against CDK5 was 14%; on Dyrk1B, 70%; at Clk1 (at 5 µM), 86%; on MST1 (STK4) it was 2%; on PKCβ it was -7%; against CaMK1, 0%. The IC50 was determined as 1800 nM against Dyrk1B and 610 nM against Clk1.

(Values after publication PMC3968014, “Design and Synthesis of a Library of Lead-Like 2,4-Bisheterocyclic Substituted Thiophenes as Selective Dyrk/Clk Inhibitors” (PLoS ONE, 2014).)
